Data as given in patent US20140154730A1, “METHOD FOR STABILIZATION OF FLUID BIOLOGICAL SAMPLES” (DENATOR AB, priority 2011, published 2014).

Assays:
[1] = Stabilization of oseltamivir in mouse blood spotted on Whatman FTA DMPK-C card; type: in vitro ADME; details: mouse blood spiked 500 ng/mL; for % oseltamivir metabolized: 25 μL spot on Whatman FTA DMPK-C card
Description: Oseltamivir is an oral prodrug of oseltamivir carboxylate, a selective inhibitor of viral neuramidase glycoprotein in influenza A. Oseltamivir undergoes fast bioconversion to oseltamivir carboxylate mostly by carboxylesterase 1 (CES 1).
Mouse blood was spiked with oseltamivir, 500 ng/mL. 25 μL, blood was spotted on Whatman FTA DMPK-C card. Spot were left to dry at room temperature, or heat treated using a Stabilizor™ System (Denator A B, Göteborg, Sweden) then left to dry.

[2] = Effect of different drying conditions on oseltamivir metabolism in spotted mouse blood; type: in vitro ADME; details: mouse blood spiked 2000 ng/mL, 25 μL spot on Whatman FTA DMPK-C card
Description: (§1) FIG. 2 is a graph showing the amount of metabolized Oseltamivir in samples following different treatments. Samples A were treated according to standard procedures according to manufacturer's instructions, i.e. dried in open air for 2 hrs. Samples B were dried in closed bags with silica. Samples C were heat stabilized and subsequently dried in open air. Samples D were heat stabilized and subsequently dried in closed bags with silica. Values in FIG. 2 showing % oseltamivir metabolized are mean of three samples
as §1, with “Mouse blood was spiked with oseltamivir, 2000 ng/mL. 25 μL, blood was spotted on Whatman FTA DMPK-C card. Spots were allowed to dry under” for “FIG. 2 is a graph showing the amount of metabolized Oseltamivir in samples following”, “conditions, with our without prior heat stabilization.” for “treatments.”, “samples.” for “samples”

CCOC(=O)C1=C[C@@H](OC(CC)CC)[C@H](NC(C)=O)[C@@H](N)C1 [oseltamivir]
% oseltamivir metabolized ([1]; treatment: Drying at room temperature only): 27%
% oseltamivir metabolized ([1]; treatment: Heating (Stabilizor System) then left to dry): 3%
metabolism of the prodrug, heat treatment compared to only passive drying ([1]; sample on paper, heat treated): strongly reduced the metabolism
amount of metabolized oseltamivir, not heat stabilized, dried in closed bags with silica (Samples B) ([2]; compared to drying in open air): even higher amount of metabolized oseltamivir
amount of metabolized oseltamivir, heat stabilized, dried in closed bags with silica (Samples D) ([2]; compared to drying in open air (Samples C)): does not affect the amount of metabolized oseltamivir
amount of metabolized oseltamivir, heat stabilized samples (C, D) versus not heat stabilized ([2]; mean of three samples): significant lower amount of metabolized oseltamivir
